Experiments:
Type in all cases: in vivo
kochia (Bassia scoparia) [1] = assay: Test A postemergence application, visual injury rating 0-100
Summary of the method: (§1)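 Compounds formulated in a non-phytotoxic solvent with surfactant are sprayed onto soil of freshly planted loam-sand pots ahead of emergence, or onto emerged plants 2-10 cm tall. After a 10-day greenhouse period, each species is scored visually for injury against untreated controls.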

[2] = system: ragweed (common ragweed, Ambrosia artemisiifolia); assay: as above
Summary of the method: as §1

[3] = system: horseweed (Erigeron canadensis); assay: as above
Summary of the method: as §1

[4] = system: green foxtail (Setaria viridis); assay: as above
Summary of the method: as §1

corn (Zea mays) [5] = assay: as above
Summary of the method: as §1

[6] = system: ryegrass, Italian (italian ryegrass, Lolium multiflorum); assay: as above
Summary of the method: as §1

[7] = system: palmer (palmer amaranth, palmer pigweed, Amaranthus palmeri); assay: as above
Summary of the method: as §1

[8] = system: blackgrass (Alopecurus myosuroides); assay: as above
Summary of the method: as §1

soybean (Glycine max) [9] = assay: as above
Summary of the method: as §1

[10] = system: oat, wild (wild oat, Avena fatua); assay: as above
Summary of the method: as §1

[11] = system: barnyardgrass (Echinochloa crus-galli); assay: as above
Summary of the method: as §1

[12] = system: galium (catchweed bedstraw, Galium aparine); assay: as above
Summary of the method: as §1

[13] = system: wheat (Triticum aestivum); assay: as above
Summary of the method: as §1

kochia (Bassia scoparia) [14] = assay: Test A preemergence soil spray, visual injury rating 0-100; settings: 62 g ai/ha, 10 days, 0 = no effect, 100 = complete control
Summary of the method: as §1

[15] = system: ragweed (common ragweed, Ambrosia artemisiifolia); assay: as above; settings: 10 days
Summary of the method: as §1

[16] = system: green foxtail (Setaria viridis); assay: as above; settings: 10 days
Summary of the method: as §1

corn (Zea mays) [17] = assay: as above; settings: 10 days
Summary of the method: as §1

[18] = system: ryegrass, Italian (italian ryegrass, Lolium multiflorum); assay: as above; settings: 10 days
Summary of the method: as §1

[19] = system: palmer (palmer amaranth, palmer pigweed, Amaranthus palmeri); assay: as above; settings: 10 days
Summary of the method: as §1

[20] = system: blackgrass (Alopecurus myosuroides); assay: as above; settings: 10 days
Summary of the method: as §1

soybean (Glycine max) [21] = assay: as above; settings: 10 days
Summary of the method: as §1

[22] = system: oat, wild (wild oat, Avena fatua); assay: as above; settings: 10 days
Summary of the method: as §1

[23] = system: barnyardgrass (Echinochloa crus-galli); assay: as above; settings: 10 days
Summary of the method: as §1

[24] = system: wheat (Triticum aestivum); assay: as above; settings: 10 days
Summary of the method: as §1

[25] = system: sedge, umbrella (small-flower umbrella sedge, Cyperus difformis); assay: Test B flooded paddy test, visual plant response rating 0-100; settings: 250 g ai/ha, Flood, applied to paddy water, evaluated after 13 days
Summary of the method: (§2)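 Each species was raised to two leaves before flooding to a 3 cm depth and dosing the water with compound. Injury was assessed by eye after 13 days under greenhouse conditions.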

[26] = system: barnyardgrass (Echinochloa crusgalli); assay: as above; settings: 250 g ai/ha, Flood, applied to paddy water, evaluated after 13 days
Summary of the method: as §2

rice (Oryza sativa) = assay: as above; settings: 250 g ai/ha, Flood, applied to paddy water, evaluated after 13 days
Summary of the method: as §2

[27] = system: ducksalad (Heteranthera limosa); assay: as above; settings: 250 g ai/ha, Flood, applied to paddy water, evaluated after 13 days
Summary of the method: as §2

[28] = 62 g ai/ha, postemergence, 10 days, 0 = no effect, 100 = complete control
[29] = Postemergence, 16 g ai/ha, greenhouse 10 days, 0 no effect, 100 complete control
[30] = 62 g ai/ha, 0 = no effect, 100 = complete control

## CC(C)COC(=O)C1=CCC(NC(=O)C2(C)CN(c3cc(Cl)cc(Cl)c3)C(=O)O2)C1 (stereo not drawn) [Compound 155]
Kochia (Bassia scoparia) [1]; [28]
  Kochia plant response rating (0-100): 40
Kochia (Bassia scoparia) [1]; [29]
  Kochia plant response rating (0 to 100 scale): 0
[2]; [28]
  Ragweed plant response rating (0-100): 30
[2]; [29]
  Ragweed plant response rating (0 to 100 scale): 0
[3]; [28]
  Horseweed plant response rating (0-100): 0
[3]; [29]
  Horseweed plant response rating (0 to 100 scale): 0
[4]; [28]
  Foxtail, Green plant response rating (0-100): 20
[4]; [29]
  Foxtail, Green plant response rating (0 to 100 scale): 0
Corn (Zea mays) [5]; [28]
  Corn plant response rating (0-100): 0
Corn (Zea mays) [5]; [29]
  Corn plant response rating (0 to 100 scale): 0
[6]; [28]
  Ryegrass, Italian plant response rating (0-100): 0
[6]; [29]
  Ryegrass, Italian plant response rating (0 to 100 scale): 0
[7]; [28]
  Pigweed, Palmer plant response rating (0-100): 0
[7]; [29]
  Pigweed, Palmer plant response rating (0 to 100 scale): 0
[8]; [28]
  Blackgrass plant response rating (0-100): 0
[8]; [29]
  Blackgrass plant response rating (0 to 100 scale): 0
Soybean (Glycine max) [9]; [28]
  Soybean plant response rating (0-100): 20
Soybean (Glycine max) [9]; [29]
  Soybean plant response rating (0 to 100 scale): 0
[10]; [28]
  Oat, Wild plant response rating (0-100): 0
[10]; [29]
  Oat, Wild plant response rating (0 to 100 scale): 0
[11]; [28]
  Barnyardgrass plant response rating (0-100): 10
[11]; [29]
  Barnyardgrass plant response rating (0 to 100 scale): 0
[12]; [28]
  Galium plant response rating (0-100): 70
[12]; [29]
  Galium plant response rating (0 to 100 scale): 0
[13]; [28]
  Wheat plant response rating (0-100): 0
[13]; [29]
  Wheat plant response rating (0 to 100 scale): 0
Kochia (Bassia scoparia) [14]
  Kochia plant response rating (0-100): 20
[15]; 16 g ai/ha, 0 to 100 scale
  Ragweed plant response rating: 0
[15]; [30]
  Ragweed plant response rating (0-100): 0
[16]; 16 g ai/ha, 0 to 100 scale
  Foxtail, Green plant response rating: 30
[16]; [30]
  Foxtail, Green plant response rating (0-100): 30
Corn (Zea mays) [17]; 16 g ai/ha, 0 to 100 scale
  Corn plant response rating: 0
Corn (Zea mays) [17]; [30]
  Corn plant response rating (0-100): 0
[18]; 16 g ai/ha, 0 to 100 scale
  Ryegrass, Italian plant response rating: 0
[18]; [30]
  Ryegrass, Italian plant response rating (0-100): 0
[19]; 16 g ai/ha, 0 to 100 scale
  Pigweed, Palmer plant response rating: 0
[19]; [30]
  Pigweed, Palmer plant response rating (0-100): 0
[20]; 16 g ai/ha, 0 to 100 scale
  Blackgrass plant response rating: 0
[20]; [30]
  Blackgrass plant response rating (0-100): 0
Soybean (Glycine max) [21]; 16 g ai/ha, 0 to 100 scale
  Soybean plant response rating: 0
Soybean (Glycine max) [21]; [30]
  Soybean plant response rating (0-100): 0
[22]; 16 g ai/ha, 0 to 100 scale
  Oat, Wild plant response rating: 0
[22]; [30]
  Oat, Wild plant response rating (0-100): 0
[23]; 16 g ai/ha, 0 to 100 scale
  Barnyardgrass plant response rating: 0
[23]; [30]
  Barnyardgrass plant response rating (0-100): 10
[24]; 16 g ai/ha, 0 to 100 scale
  Wheat plant response rating: 0
[24]; [30]
  Wheat plant response rating (0-100): 10
[25]
  Plant response rating, Sedge, Umbrella (0 to 100 scale, 0 is no effect and 100 is complete control): 0
[26]
  Plant response rating, Barnyardgrass (0 to 100 scale, 0 is no effect and 100 is complete control): 0
Rice (Oryza sativa)
  Plant response rating, Rice (0 to 100 scale, 0 is no effect and 100 is complete control): 0
[27]
  Plant response rating, Ducksalad (0 to 100 scale, 0 is no effect and 100 is complete control): 0

Source: US20260285850A1, “SUBSTITUTED OXAZOLIDINONES AND IMIDAZOLINONES AS HERBICIDES” (FMC CORPORATION, priority 2023, published 2026)
